Literature values in patent US8680293B2, “Substituted CC-1065 analogs and their conjugates” (Syntarga B.V., priority 2007, dated 2014).

Details: reason it could not be used in the clinic

**Q.** With `COc1c(O)c2c(c3cc(C(=O)N4CCc5c4c(O)c(OC)c4[nH]c(C(=O)N6CC7CC78C6=CC(=O)c6[nH]cc(C)c68)cc54)[nH]c13)CCN2C(N)=O` (stereo not shown) [CC-1065] as the compound, how does the hepatotoxicity read?
**A.** serious delayed hepatotoxicity
